Measurements published in patent US9839634B2 (priority 2012, dated 2017).
Like-named read-outs stand apart in the source and are kept apart here.

Columns and labels:
[1] = tested on: Staphylococcus aureus ATCC12600; format: cell-based
Experimental: Spontaneous resistance frequencies in Staphylococcus aureus were determined by plating defined numbers of cells of Staphylococcus aureus ATCC12600 (1×10^8-1×10^12 cfu/plate) on Mueller-Hinton agar containing rifampin, myxopyronin B, or both, and counting numbers of colonies after 14 h at 37° C. Experiments were performed using (a) rifampin at 1×, 2×, or 4× the minimum inhibitory concentration of rifampin administered individually; (b) myxopyronin B at lx, 2×, or 4× the minimum inhibitory concentration of myxopyronin B administered individually; or (c) both rifampin at 1×, 2×, or 4× the minimum inhibitory concentration of rifampin administered individually and myxopyronin B at 1×, 2×, or 4× the minimum inhibitory concentration of myxopyronin B administered individually. All experiments were performed four times, using four different starting cultures.

[2] = tested on: Escherichia coli D21f2tolC; format: cell-based; conditions: 2xMIC; for resistance rate per generation: MSS-MLE
Experimental: Spontaneous resistance frequencies in Escherichia coli were determined by plating defined numbers of cells of Escherichia coli D21f2tolC (1×10^8-1×10^12 cfu/plate) on LB agar containing rifampin, myxopyronin B, or both, and counting numbers of colonies after 24 h at 37° C. Experiments were performed using (a) rifampin at 2× the minimum inhibitory concentration of rifampin administered individually; (b) myxopyronin B at 2× the minimum inhibitory concentration of myxopyronin B administered individually; or (c) both rifampin at 2× the minimum inhibitory concentration of rifampin administered individually and myxopyronin B at 2× the minimum inhibitory concentration of myxopyronin B administered individually. All experiments were performed at least five times, using at least five different starting cultures. Resistance rates and 95% confidence intervals were calculated using the Ma-Sandri-Sarkar Maximum Likelihood Estimator (MSS-MLE; [Ma, W, Sandri, GvH., Sarkar, S. (1992. ) J. Appl. Probab. 29, 255-267; Sarkar, S., Ma, W., Sandri, GvH. (1992) Genetica 85, 173-179]) as implemented on the Fluctuation Analysis Calculator (FALCOR; http://www.keshaysingh.org/protocols/FALCOR.html; [Hall, B., Ma, C., Liang, P., Singh, K (2009) Bioinformatics 25, 1564-1565]). Sampling correction was performed as in [Stewart, F., Gordon, D., Levin, B. (1990) Genetics 124, 175-185; Jones, M. (1993) Mutat. Res. 292, 187-189].

`CCc1c(Cl)c(O)c(Cl)c(O)c1C(=O)O[C@H]1[C@H](O)[C@H](OC)[C@H](OC/C2=C\C=C\C[C@H](O)/C(C)=C/[C@H](CC)[C@@H](O[C@@H]3OC(C)(C)[C@@H](OC(=O)C(C)C)[C@H](O)[C@@H]3O)/C(C)=C/C(C)=C/C[C@@H]([C@@H](C)O)OC2=O)O[C@@H]1C` [lipiarmycin A3] was tested, and the spontaneous resistance frequency ([1]; 2xMIC) was 3×10^−8.

For `CCCC/C(C)=C/C=C(\C)C(=O)c1c(O)cc([C@H](C)CC/C=C/NC(=O)OC)oc1=O` [myxopyronin B], the spontaneous resistance frequency ([1]; 1xMIC) was 4 × 10^−8, the spontaneous resistance frequency ([1]; 2xMIC) was 7 × 10^−8 and the spontaneous resistance frequency ([1]; 4xMIC) was 7 × 10^−8. For the same molecule, the spontaneous resistance frequency ([1]; mean of 1x, 2x, 4xMIC) was 6×10^−8, the spontaneous resistance frequency [2] was 8×10^−10 and the “resistance rate per generation” value [2] was 3×10^−10 per generation.

With `CO[C@H]1/C=C/O[C@@]2(C)Oc3c(C)c(O)c4c(O)c(c(/C=N/N5CCN(C)CC5)c(O)c4c3C2=O)NC(=O)/C(C)=C\C=C\[C@H](C)[C@H](O)[C@@H](C)[C@@H](O)[C@@H](C)[C@H](OC(C)=O)[C@@H]1C` [rifampin] the spontaneous resistance frequency ([1]; 1xMIC) was 5 × 10^−8, the spontaneous resistance frequency ([1]; 2xMIC) was 6×10^−8 and the spontaneous resistance frequency ([1]; 4xMIC) was 6 × 10^−8. For the same molecule, the spontaneous resistance frequency ([1]; mean of 1x, 2x, 4xMIC) was 6×10^−8, the spontaneous resistance frequency [2] was 4×10^−9 and the “resistance rate per generation” value [2] was 1×10^−9 per generation.
